Entries after “also recorded” stand apart in the source; their conditions may differ. Read-outs that look alike come from different tables or passages of the source.
How the values were obtained:
[1] = tested on: Escherichia coli K-12 MG1655; assay: Screening for tolerance in wild-type cells: growth in varying concentrations of diols (Biolector); format: cell-based; conditions: for growth observed at maximum concentration / Maximum concentration for robust growth: K-12 MG1655; for toxicity threshold: E. coli
E. coli K-12 MG1655 = format: cell-based
K-12 MG1655 = format: cell-based, Escherichia coli
[2] = growth rate of K-12 MG1655, diol 0.5% (v/v), M9+1% glucose, 37° C.
[3] = growth rate of K-12 MG1655, diol 1% (v/v)
[4] = growth rate of K-12 MG1655, diol 2% (v/v)
[5] = growth rate of K-12 MG1655, diol 3.5% (v/v)
[6] = growth rate of K-12 MG1655, diol 5% (v/v)
[7] = growth rate of K-12 MG1655, diol 7.5% (v/v)
[8] = growth rate of K-12 MG1655, diol 10% (v/v)
[9] = lag time of K-12 MG1655, diol 0.5% (v/v)
[10] = lag time of K-12 MG1655, diol 1% (v/v)
[11] = lag time of K-12 MG1655, diol 2% (v/v)
[12] = lag time of K-12 MG1655, diol 3.5% (v/v)
[13] = lag time of K-12 MG1655, diol 5% (v/v)
[14] = K-12 MG1655, diol 1 % (v/v), Growth Profiler
[15] = K-12 MG1655, diol 2 % (v/v), Growth Profiler
[16] = K-12 MG1655, diol 3 % (v/v), Growth Profiler
[17] = K-12 MG1655, diol 4 % (v/v), Growth Profiler
[18] = K-12 MG1655, diol 5 % (v/v), Growth Profiler
[19] = K-12 MG1655, diol 6 % (v/v), Growth Profiler
[20] = K-12 MG1655, diol 7.5 % (v/v), Growth Profiler

`CCCC(O)CO` (centres unmarked) [1,2-pentanediol] was tested, and the “growth observed at maximum concentration” value [1] was 1%, the “μ, mean” value [1, 2] was 0.524 h⁻¹ and the “μ, mean” value [1, 3] was 0.346 h⁻¹. The “μ, mean” value [1, 4] was 0.000 h⁻¹, the “μ, mean” value [1, 5] was 0.000 h⁻¹ and the “μ, mean” value [1, 6] was 0.000 h⁻¹. For the same compound, the “μ, mean” value [1, 7] was 0.000 h⁻¹, the “μ, mean” value [1, 8] was 0.000 h⁻¹ and the “tlag, mean” value [1, 9] was 0.4 h. For the same compound, the “tlag, mean” value [1, 10] was 1.3 h.
For `CC(O)CO` (centres unmarked) [1,2-propanediol], the “Maximum concentration for robust growth” value [1] was 7.5%, the “μ, mean” value [1, 2] was 0.701 h⁻¹ and the “μ, mean” value [1, 3] was 0.662 h⁻¹. The “μ, mean” value [1, 4] was 0.595 h⁻¹, the “μ, mean” value [1, 5] was 0.442 h⁻¹ and the “μ, mean” value [1, 6] was 0.406 h⁻¹. The “μ, mean” value [1, 7] was 0.579 h⁻¹, the “μ, mean” value [1, 8] was 0.000 h⁻¹ and the “tlag, mean” value [1, 9] was 0.9 h. The “tlag, mean” value [1, 10] was 0.8 h, the “tlag, mean” value [1, 11] was 0.8 h and the “tlag, mean” value [1, 12] was 0.5 h. The “tlag, mean” value [1, 13] was 2.3 h and the “tlag, mean” value ([1]; lag time of K-12 MG1655, diol 7.5% (v/v)) was 8.3 h.
With `OCCCO` [1,3-propanediol] the “tlag, mean” value (E. coli K-12 MG1655; [14]) was 5.3 h, the “μ, mean” value (E. coli K-12 MG1655; [14]) was 0.670 h⁻¹ and the “tlag, mean” value (E. coli K-12 MG1655; [15]) was 6.1 h. For the same compound, the “μ, mean” value (E. coli K-12 MG1655; [15]) was 0.686 h⁻¹, the “tlag, mean” value (E. coli K-12 MG1655; [16]) was 7.3 h and the “μ, mean” value (E. coli K-12 MG1655; [16]) was 0.603 h⁻¹. For the same compound, the “tlag, mean” value (E. coli K-12 MG1655; [17]) was 9.6 h, the “μ, mean” value (E. coli K-12 MG1655; [17]) was 0.463 h⁻¹ and the “tlag, mean” value (E. coli K-12 MG1655; [18]) was 12.5 h. For the same compound, the “μ, mean” value (E. coli K-12 MG1655; [18]) was 0.277 h⁻¹, the “tlag, mean” value (E. coli K-12 MG1655; [19]) was 14.7 h and the “μ, mean” value (E. coli K-12 MG1655; [19]) was 0.201 h⁻¹. The “tlag, mean” value (E. coli K-12 MG1655; [20]) was 24.9 h, the “μ, mean” value (E. coli K-12 MG1655; [20]) was 0.118 h⁻¹ and the “growth inhibition of E. coli K-12 MG1655 (in words)” value (E. coli K-12 MG1655; variable concentrations, Growth Profiler) was “elicited growth inhibition”.
`OCCCCO` [1,4-butanediol] was tested, and the “growth inhibition of E. coli K-12 MG1655 (in words)” value (E. coli K-12 MG1655) was “elicited growth inhibition”.
With `OCCCCCO` [1,5-pentanediol] the “growth observed at maximum concentration” value [1] was 3.5%, the “μ, mean” value [1, 2] was 0.613 h⁻¹ and the “μ, mean” value [1, 3] was 0.569 h⁻¹. The “μ, mean” value [1, 4] was 0.437 h⁻¹, the “μ, mean” value [1, 5] was 0.158 h⁻¹ and the “μ, mean” value [1, 6] was 0.000 h⁻¹. For the same compound, the “μ, mean” value [1, 7] was 0.000 h⁻¹, the “μ, mean” value [1, 8] was 0.000 h⁻¹ and the “tlag, mean” value [1, 9] was 0.3 h. The “tlag, mean” value [1, 10] was 0.5 h, the “tlag, mean” value [1, 11] was 0.9 h and the “tlag, mean” value [1, 12] was -8.8 h.
For `CC(O)C(C)O` (centres unmarked) [2,3-butanediol], the toxicity threshold [1] was 7.5 % (v/v), the toxicity threshold ([1]; conversion of 7.5% (v/v)) was 74.0 g/L and the “Maximum concentration for robust growth” value [1] was 5%. For the same compound, the “μ, mean” value [1, 2] was 0.944 h⁻¹, the “μ, mean” value [1, 3] was 0.791 h⁻¹ and the “μ, mean” value [1, 4] was 0.754 h⁻¹. For the same compound, the “μ, mean” value [1, 5] was 0.498 h⁻¹, the “μ, mean” value [1, 6] was 0.265 h⁻¹ and the “μ, mean” value [1, 7] was 0.054 h⁻¹. For the same compound, the “μ, mean” value [1, 8] was 0.000 h⁻¹, the “tlag, mean” value [1, 9] was 2.2 h and the “tlag, mean” value [1, 10] was 1.8 h. The “tlag, mean” value [1, 11] was 2.1 h, the “tlag, mean” value [1, 12] was 1.6 h and the “tlag, mean” value [1, 13] was -1.2 h.
With `CSCC[C@H](N)C(=O)O` [methionine, L-methionine] the “effect on growth of K-12 MG1655 in 2,3-butanediol” value (K-12 MG1655) was “significantly restored”, the “effect on growth of evolved strains in 1,2-propanediol” value (K-12 MG1655) was “did not have a significantly enhanced growth rate; also recorded: minimal effect” and the “effect on growth of the wild-type strain in 1,2-propanediol” value (K-12 MG1655) was “significantly restored; also recorded: restore growth of the wild-type strain”. For the same compound, the “effect on growth rate of evolved strains in 2,3-butanediol” value (K-12 MG1655) was “did not have a significantly enhanced growth rate increase”.

— patent publication US20190309309A1, “BACTERIAL CELLS WITH IMPROVED TOLERANCE TO POLYOLS” (DANMARKS TEKNISKE UNIVERSITET, priority 2016, published 2019)
